Some test systems named below: 786-0 renal; BT-549 breast; EKVX NSCLC; HCT-116 colon; HL-60(TB) leukemia; HT29 colon; MCF7 breast; NCI-H23 lung; OVCAR-3 ovarian; OVCAR-4 ovarian; OVCAR-8 ovarian; RPMI-8226 leukemia; SF-268 CNS; SNB-19 CNS; U251 CNS; UACC-62 melanoma.
Holding throughout (experiment): DTP human tumour cell line panel, 48 h

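In this assay, cells in 96-well plates receive the compound at five concentrations for 48 hours. Endpoints are linearly interpolated between the surrounding concentrations. TGI: concentration producing complete growth inhibition.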

Consider `COc1cccc(C2c3cc4c(cc3OC(Nc3ccccc3)C2C)OCO4)c1O` (stereo not given), for which the TGI was 32.1 µM in the assay with 786-0 renal; 38.8 µM in the assay with BT-549 breast; above 55.9 µM in the assay on EKVX NSCLC; 36 µM in the assay on HCT-116 colon; above 23.9 µM in the assay on HL-60(TB) leukemia; 37.7 µM in the assay on HT29 colon. For the same compound, the TGI in the assay on MCF7 breast is above 75 µM; in the assay with NCI-H23 lung, 45.2 µM; with OVCAR-3 ovarian, 29.9 µM; in the assay with OVCAR-4 ovarian, above 100 µM; in the assay on OVCAR-8 ovarian, 35.7 µM; with RPMI-8226 leukemia, 43.8 µM. Also, the TGI in the assay with SF-268 CNS was above 55.6 µM; in the assay with SNB-19 CNS, 74 µM; in the assay with U251 CNS it was 23.2 µM; in the assay with UACC-62 melanoma, 29 µM.
With `CCOC(=O)CCC(C(=O)OCC)n1nnc2cc(Nc3c(C)[n+]([O-])c4cc(F)c(OCC)cc4[n+]3[O-])ccc21` (stereo not given), the TGI in the assay with 786-0 renal, in the assay on BT-549 breast, in the assay with EKVX NSCLC, in the assay on HCT-116 colon, with HL-60(TB) leukemia and in the assay with HT29 colon was above 100 µM throughout. Also, the TGI in the assay with MCF7 breast, with NCI-H23 lung, with OVCAR-3 ovarian, in the assay on OVCAR-4 ovarian, in the assay on OVCAR-8 ovarian and in the assay on RPMI-8226 leukemia was above 100 µM each time. The TGI in the assay with SF-268 CNS was 94.9 µM; with SNB-19 CNS, above 100 µM; in the assay on U251 CNS, above 100 µM; in the assay with UACC-62 melanoma, above 100 µM.
With `NC(=O)CN1C=CCC(C(N)=O)=C1`, the TGI in the assay on 786-0 renal, in the assay on BT-549 breast, with EKVX NSCLC, in the assay on HCT-116 colon, with HL-60(TB) leukemia and with HT29 colon was above 100 µM throughout. The total growth inhibition concentration (TGI) in the assay with MCF7 breast, in the assay on NCI-H23 lung, with OVCAR-3 ovarian, in the assay on OVCAR-4 ovarian, in the assay with OVCAR-8 ovarian and with RPMI-8226 leukemia was above 100 µM in each case. For the same compound, the TGI with SF-268 CNS, with SNB-19 CNS, in the assay with U251 CNS and in the assay on UACC-62 melanoma was above 100 µM each time.
On to `O=c1[nH]nc(Cc2ccc(Cl)cc2)n1/N=C/c1ccc([N+](=O)[O-])o1`, for which the TGI is 11.1 µM in the assay with 786-0 renal; 6.8 µM in the assay on BT-549 breast; 13.8 µM in the assay with EKVX NSCLC; 3.2 µM in the assay with HCT-116 colon; above 26.1 µM in the assay on HL-60(TB) leukemia; above 41.1 µM in the assay with HT29 colon. The total growth inhibition concentration (TGI) in the assay with MCF7 breast was above 36.8 µM; in the assay with NCI-H23 lung, 16.8 µM; in the assay with OVCAR-3 ovarian, 25.9 µM; in the assay on OVCAR-4 ovarian, 15.9 µM; with OVCAR-8 ovarian, above 32.2 µM; in the assay with RPMI-8226 leukemia, 6.48 µM. The TGI in the assay with SF-268 CNS is 7.93 µM; in the assay with SNB-19 CNS, 33.3 µM; in the assay with U251 CNS, above 34.4 µM; in the assay on UACC-62 melanoma, 9.09 µM.
For the compound `O=C(Nc1nn[nH]n1)c1nc(-c2ccccc2)cc(=O)[nH]1`, the TGI with 786-0 renal, in the assay with BT-549 breast, in the assay with EKVX NSCLC, in the assay with HCT-116 colon, in the assay with HL-60(TB) leukemia and in the assay on HT29 colon was above 100 µM in each case. Also, the TGI with MCF7 breast, with NCI-H23 lung, in the assay on OVCAR-3 ovarian, with OVCAR-4 ovarian, in the assay with OVCAR-8 ovarian and with RPMI-8226 leukemia was above 100 µM each time. For the same compound, the concentration for total growth inhibition (TGI) in the assay on SF-268 CNS, in the assay on SNB-19 CNS, with U251 CNS and with UACC-62 melanoma was above 100 µM throughout.
Regarding `COc1ccccc1NC(=O)CC(=O)NN`, the TGI with 786-0 renal, in the assay on BT-549 breast, in the assay with EKVX NSCLC, in the assay on HCT-116 colon, in the assay with HL-60(TB) leukemia and with HT29 colon was above 100 µM each time. For the same compound, the concentration for total growth inhibition (TGI) in the assay on MCF7 breast, in the assay with NCI-H23 lung, in the assay with OVCAR-3 ovarian, in the assay on OVCAR-4 ovarian, in the assay on OVCAR-8 ovarian and with RPMI-8226 leukemia was above 100 µM each time. Besides, the TGI in the assay with SF-268 CNS, in the assay with SNB-19 CNS, in the assay with U251 CNS and in the assay with UACC-62 melanoma was above 100 µM each time.
Consider `O=C1NC(N2CCOCC2)=N/C1=C\c1ccc(O)cc1`, for which the TGI with 786-0 renal, in the assay on BT-549 breast, with EKVX NSCLC, in the assay on HCT-116 colon, in the assay with HL-60(TB) leukemia and in the assay on HT29 colon was above 100 µM in each case. The total growth inhibition concentration (TGI) in the assay with MCF7 breast, in the assay with NCI-H23 lung, with OVCAR-3 ovarian, in the assay on OVCAR-4 ovarian, in the assay with OVCAR-8 ovarian and in the assay on RPMI-8226 leukemia was above 100 µM in each case. Further, the TGI in the assay on SF-268 CNS, in the assay with SNB-19 CNS, in the assay on U251 CNS and in the assay on UACC-62 melanoma was above 100 µM in each case.
With `CCOC(=O)Nc1ccc(S(=O)(=O)Nn2cnnc2)cc1`, the TGI was above 100 µM in the assay on 786-0 renal; above 100 µM with BT-549 breast; above 100 µM in the assay on EKVX NSCLC; above 100 µM in the assay on HCT-116 colon; above 100 µM in the assay with HL-60(TB) leukemia; 59.9 µM with HT29 colon. In addition, the TGI with MCF7 breast is above 100 µM; with NCI-H23 lung it was above 100 µM; in the assay with OVCAR-3 ovarian it was 77.4 µM; in the assay on OVCAR-4 ovarian, 73.4 µM; in the assay with OVCAR-8 ovarian, above 100 µM; with RPMI-8226 leukemia it was 94.3 µM. For the same compound, the TGI in the assay on SF-268 CNS, with SNB-19 CNS, with U251 CNS and in the assay on UACC-62 melanoma was above 100 µM in each case.
Regarding `COc1ccc2cc(C(C)C(=O)N3C(=O)OCC3(C)C)ccc2c1` (stereo not given), the TGI in the assay with 786-0 renal, in the assay on BT-549 breast, in the assay with EKVX NSCLC, in the assay on HCT-116 colon, in the assay on HL-60(TB) leukemia and in the assay with HT29 colon was above 100 µM each time. Besides, the TGI with MCF7 breast, in the assay with NCI-H23 lung, with OVCAR-3 ovarian, in the assay on OVCAR-4 ovarian, in the assay on OVCAR-8 ovarian and in the assay with RPMI-8226 leukemia was above 100 µM each time. In addition, the TGI in the assay with SF-268 CNS, with SNB-19 CNS, with U251 CNS and in the assay on UACC-62 melanoma was above 100 µM in each case.
Turning to `CCCCCCCCOc1ccc(/C=C/C2=[N+](CCO)CCO2)cc1`, the TGI in the assay on 786-0 renal amounted to 13.7 µM; with BT-549 breast it was 14.5 µM; in the assay on EKVX NSCLC it was 14.9 µM; in the assay on HCT-116 colon, 10.2 µM; with HL-60(TB) leukemia, 4.74 µM; in the assay on HT29 colon, 8.26 µM. The TGI with MCF7 breast is above 100 µM; in the assay on NCI-H23 lung, 5.28 µM; in the assay on OVCAR-3 ovarian it was 28 µM; with OVCAR-4 ovarian it was 14.2 µM; in the assay on OVCAR-8 ovarian it was 12.3 µM; in the assay on RPMI-8226 leukemia, 5.02 µM. Also, the TGI in the assay on SF-268 CNS came to 20.5 µM; in the assay with SNB-19 CNS, 17.5 µM; in the assay with U251 CNS, 8.13 µM; in the assay on UACC-62 melanoma, 17.2 µM.
`COc1nc(C#CC2CCCCC2)nc(OC)n1`: the TGI in the assay on 786-0 renal was 7.77 µM; in the assay on BT-549 breast, 14.6 µM; with EKVX NSCLC, 32.6 µM; in the assay on HCT-116 colon it was 10.2 µM; with HL-60(TB) leukemia, 26 µM; in the assay with HT29 colon, above 100 µM. For the same compound, the TGI in the assay on MCF7 breast was 14.9 µM; in the assay with NCI-H23 lung, 8.6 µM; with OVCAR-3 ovarian, 8.97 µM; with OVCAR-4 ovarian, 27.3 µM; with OVCAR-8 ovarian, 3.44 µM; with RPMI-8226 leukemia, 6.53 µM. Also, the TGI stood at 20.4 µM in the assay with SF-268 CNS, 43.6 µM in the assay with SNB-19 CNS, 16.7 µM in the assay with U251 CNS and 4.38 µM with UACC-62 melanoma.
With `Cc1nc(Nc2ccccc2Cl)sc1C(=O)CC(=O)C(N)=O`, the TGI with 786-0 renal, with BT-549 breast, with EKVX NSCLC, in the assay on HCT-116 colon, in the assay with HL-60(TB) leukemia and in the assay with HT29 colon was above 100 µM each time. Also, the TGI with MCF7 breast, in the assay with NCI-H23 lung, in the assay on OVCAR-3 ovarian, in the assay on OVCAR-4 ovarian, with OVCAR-8 ovarian and in the assay with RPMI-8226 leukemia was above 100 µM throughout. In addition, the TGI in the assay with SF-268 CNS, in the assay on SNB-19 CNS, in the assay with U251 CNS and with UACC-62 melanoma was above 100 µM throughout.
As for `Clc1ccc(C2=CCN3CC=C(c4ccc(Cl)cc4)C23)cc1`, the total growth inhibition concentration (TGI) in the assay with 786-0 renal came out at 24.1 µM; in the assay with BT-549 breast, 24 µM; in the assay with EKVX NSCLC, 31.6 µM; with HCT-116 colon, 19.2 µM; in the assay with HL-60(TB) leukemia, 19.7 µM; in the assay with HT29 colon, 17.8 µM. For the same compound, the TGI with MCF7 breast was 28.6 µM; in the assay on NCI-H23 lung, 26.8 µM; in the assay on OVCAR-3 ovarian, 25.1 µM; in the assay with OVCAR-4 ovarian, 26.1 µM; in the assay with OVCAR-8 ovarian, 29.4 µM; with RPMI-8226 leukemia, 18.5 µM. Also, the total growth inhibition concentration (TGI) in the assay with SF-268 CNS was determined as 24.2 µM; in the assay with SNB-19 CNS, 31.6 µM; with U251 CNS, 23.7 µM; in the assay on UACC-62 melanoma, 21.2 µM.
In the case of `COc1cc2nc(-c3cccs3)nc(Nc3cccc(Cl)c3)c2cc1OC`, the TGI in the assay on 786-0 renal, in the assay on BT-549 breast, in the assay with EKVX NSCLC, in the assay with HCT-116 colon, in the assay on HL-60(TB) leukemia and with HT29 colon was above 100 µM throughout. Further, the TGI in the assay with MCF7 breast, in the assay with NCI-H23 lung, in the assay with OVCAR-3 ovarian, with OVCAR-4 ovarian, in the assay with OVCAR-8 ovarian and in the assay with RPMI-8226 leukemia was above 100 µM in each case. Besides, the concentration for total growth inhibition (TGI) in the assay on SF-268 CNS, in the assay with SNB-19 CNS, in the assay with U251 CNS and in the assay on UACC-62 melanoma was above 100 µM in each case.
Take `CC1CCC2(OC1)OC1C(O)C3C4CCC5CC(OC6OC(CO)C(OC7OC(CO)C(O)C(OC8OCC(O)C(O)C8O)C7OC7OC(CO)C(O)C(OC8OC(CO)C(O)C(O)C8O)C7O)C(O)C6O)C(O)CC5(C)C4CCC3(C)C1C2C` (stereo not given): the TGI is 2.96 µM in the assay with 786-0 renal; 3.19 µM with BT-549 breast; 9.8 µM in the assay with EKVX NSCLC; 3.36 µM in the assay on HCT-116 colon; 7.21 µM in the assay on HL-60(TB) leukemia; 11.8 µM in the assay with HT29 colon. For the same compound, the TGI in the assay on MCF7 breast turned out to be 4.78 µM; in the assay on NCI-H23 lung, 4.41 µM; with OVCAR-3 ovarian it was 3.32 µM; with OVCAR-4 ovarian it was 4.04 µM; in the assay with OVCAR-8 ovarian, 4.21 µM; in the assay with RPMI-8226 leukemia it was 9.28 µM. The TGI with SF-268 CNS was 4.85 µM; in the assay with SNB-19 CNS, 4.34 µM; with U251 CNS, 10.2 µM; in the assay with UACC-62 melanoma, 14.1 µM.
